In patent US20260258032A1, “TYROSINE KINASE 2 INHIBITORS AND USES THEREOF” (BIOGEN MA INC., priority 2022, published 2026):
Structures can show the parent of a compound that is named as a salt.

Assays:
JH2 domain of human Tyk2 = target: T1, JH2 domain of human Tyk2 (Homo sapiens, UniProt P29597); assay: JH2 biochemical assay (TR-FRET probe displacement); type: binding; details: JH2 biochemical assay
T1 construct: 10×His-tagged TYK2 JH2 domain (amino acid 575-876)
Summary of the method: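 10×His-tagged human TYK2 JH2 (aa 575-876, 2 nM) incubated 60 min with 2 nM fluorescent probe, 0.1 nM Tb anti-His antibody and compound (10-point 3-fold series from […] top). TR-FRET 520/495 nm ratio, falling with probe displacement, normalized and fitted to a 4-parameter logistic for IC50.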

[1] = tested on: Tyk2 kinase activity on STAT4; assay: pSTAT4 cell assay (MSD, NK92 cells); type: cell-based; details: compounds 1 hr, stimulated 15 minutes
Summary of the method: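 IC50 values derive from 4-parameter logistic fits of normalized percent activity against log compound concentration. Phospho-STAT was measured by MSD with anti-STAT4 antibodies after 15 min of 30 ng/mL IL2 in serum-starved NK92 cells pretreated 1 hr with compound.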

T1 sequence (P29597 575-876): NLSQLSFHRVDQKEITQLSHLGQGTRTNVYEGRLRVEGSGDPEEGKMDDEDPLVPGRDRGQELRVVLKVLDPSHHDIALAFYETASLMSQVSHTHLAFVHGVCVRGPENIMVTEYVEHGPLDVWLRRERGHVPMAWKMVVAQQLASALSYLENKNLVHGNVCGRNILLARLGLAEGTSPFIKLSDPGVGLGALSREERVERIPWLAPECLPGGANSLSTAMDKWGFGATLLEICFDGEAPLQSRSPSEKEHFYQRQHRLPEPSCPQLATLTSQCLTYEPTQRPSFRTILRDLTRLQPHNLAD

CC(=O)Nc1cc2c(cn1)C1(CC1)CN2c1cc(C)nc(CCS(C)(=O)=O)n1 [Example 319, N-(1′-(6-methyl-2-(2-(methylsulfonyl)ethyl)pyrimidin-4-yl)-1′,2′-dihydrospiro[cyclopropane-1,3′-pyrrolo[3,2-c]pyridin]-6′-yl)acetamide]
IC50 (JH2 domain of human Tyk2): 10 to 100 nM | IC50 [1]: ≥ 1000 nM

CC(=O)Nc1cc2c(cn1)C1(CC1)CN2c1cc(C)nc(C23COC(C2)C3)n1 [Example 320, N-(1′-(2-(2-oxabicyclo[2.1.1]hexan-4-yl)-6-methylpyrimidin-4-yl)-1′,2′-dihydrospiro[cyclopropane-1,3′-pyrrolo[3,2-c]pyridin]-6′-yl)acetamide]
IC50 (JH2 domain of human Tyk2): ≤ 10 nM | IC50 [1]: 10 to 100 nM

CCc1cc(N2CC3(CC3)c3cnc(NC(C)=O)cc32)nc(C2CCOC2)n1 (stereo not shown) [Example 321, N-(1′-(6-ethyl-2-(tetrahydrofuran-3-yl)pyrimidin-4-yl)-1′,2′-dihydrospiro[cyclopropane-1,3′-pyrrolo[3,2-c]pyridin]-6′-yl)acetamide trifluoroacetate]
IC50 (JH2 domain of human Tyk2): ≤ 10 nM | IC50 [1]: 10 to 100 nM

COCC(F)(F)c1nccc(N2CC3(CC3)c3cnc(NC(C)=O)cc32)n1 [Example 323, N-(1′-(2-(1,1-difluoro-2-methoxyethyl)pyrimidin-4-yl)-1′,2′-dihydrospiro[cyclopropane-1,3′-pyrrolo[3,2-c]pyridin]-6′-yl)acetamide]
IC50 (JH2 domain of human Tyk2): 100 to 1000 nM | IC50 [1]: 100 to 1000 nM

CCC(C)(O)CCc1cc(N2CC3(CC3)c3cnc(NC(C)=O)cc32)nc(C(C)(F)F)n1 (stereo not shown) [Example 324, N-(1′-(2-(1,1-difluoroethyl)-6-(3-hydroxy-3-methylpentyl)pyrimidin-4-yl)-1′,2′-dihydrospiro[cyclopropane-1,3′-pyrrolo[3,2-c]pyridin]-6′-yl)acetamide]
IC50 (JH2 domain of human Tyk2): ≤ 10 nM | IC50 [1]: 10 to 100 nM

CC(=O)Nc1cc2c(cn1)C1(CC1)CN2c1cc(CCCOC(C)(C)C)nc(C(C)(F)F)n1 [Example 325, N-(1′-(6-(3-(tert-butoxy)propyl)-2-(1,1-difluoroethyl)pyrimidin-4-yl)-1′,2′-dihydrospiro[cyclopropane-1,3′-pyrrolo[3,2-c]pyridin]-6′-yl)acetamide]
IC50 (JH2 domain of human Tyk2): ≤ 10 nM | IC50 [1]: 10 to 100 nM

COCCCc1cc(N2CC3(CC3)c3cnc(NC(C)=O)cc32)nc(C(C)(F)F)n1 [Example 326, N-(1′-(2-(1,1-difluoroethyl)-6-(3-methoxypropyl)pyrimidin-4-yl)-1′,2′-dihydrospiro[cyclopropane-1,3′-pyrrolo[3,2-c]pyridin]-6′-yl)acetamide]
IC50 (JH2 domain of human Tyk2): ≤ 10 nM | IC50 [1]: 10 to 100 nM

CC(=O)Nc1cc2c(cn1)C1(CC1)CN2c1cc(CCC(C)(C)O)nc(C(C)(F)F)n1 [Example 327, N-(1′-(2-(1,1-difluoroethyl)-6-(3-hydroxy-3-methylbutyl)pyrimidin-4-yl)-1′,2′-dihydrospiro[cyclopropane-1,3′-pyrrolo[3,2-c]pyridin]-6′-yl)acetamide]
IC50 (JH2 domain of human Tyk2): ≤ 10 nM | IC50 [1]: 10 to 100 nM

CCCCCc1cc(N2CC3(CC3)c3cnc(NC(C)=O)cc32)nc(C(C)(F)F)n1 [Example 328, N-(1′-(2-(1,1-difluoroethyl)-6-pentylpyrimidin-4-yl)-1′,2′-dihydrospiro[cyclopropane-1,3′-pyrrolo[3,2-c]pyridin]-6′-yl)acetamide]
IC50 (JH2 domain of human Tyk2): ≤ 10 nM | IC50 [1]: 10 to 100 nM

CCO/C=C\c1cc(N2CC3(CC3)c3cnc(NC(C)=O)cc32)nc(C(C)(F)F)n1 [Example 329, (Z)-N-(1′-(2-(1,1-difluoroethyl)-6-(2-ethoxyvinyl)pyrimidin-4-yl)-1′,2′-dihydrospiro[cyclopropane-1,3′-pyrrolo[3,2-c]pyridin]-6′-yl)acetamide]
IC50 (JH2 domain of human Tyk2): ≤ 10 nM | IC50 [1]: 10 to 100 nM

CCOCCc1cc(N2CC3(CC3)c3cnc(NC(C)=O)cc32)nc(C(C)(F)F)n1 [Example 330, N-(1′-(2-(1,1-difluoroethyl)-6-(2-ethoxyethyl)pyrimidin-4-yl)-1′,2′-dihydrospiro[cyclopropane-1,3′-pyrrolo[3,2-c]pyridin]-6′-yl)acetamide trifluoroacetate]
IC50 (JH2 domain of human Tyk2): ≤ 10 nM | IC50 [1]: 10 to 100 nM

CC(=O)Nc1cc2c(cn1)C1(CC1)CN2c1nc(C)cc(F)n1 [Example 331, N-(1′-(4-fluoro-6-methylpyrimidin-2-yl)-1′,2′-dihydrospiro[cyclopropane-1,3′-pyrrolo[3,2-c]pyridin]-6′-yl)acetamide trifluoroacetate]
IC50 (JH2 domain of human Tyk2): 100 to 1000 nM | IC50 [1]: ≥ 1000 nM

CC(=O)Nc1cc2c(cn1)C1(CC1)CN2c1cc(C)nc(F)n1 [Example 332, N-(1′-(2-fluoro-6-methylpyrimidin-4-yl)-1′,2′-dihydrospiro[cyclopropane-1,3′-pyrrolo[3,2-c]pyridin]-6′-yl)acetamide trifluoroacetate]
IC50 (JH2 domain of human Tyk2): 100 to 1000 nM | IC50 [1]: ≥ 1000 nM

CC(=O)Nc1cc2c(cn1)C1(CC1)CN2c1cc(C)cc(OCC(F)(F)F)n1 [Example 333, N-(1′-(4-methyl-6-(2,2,2-trifluoroethoxy)pyridin-2-yl)-1′,2′-dihydrospiro[cyclopropane-1,3′-pyrrolo[3,2-c]pyridin]-6′-yl)acetamide trifluoroacetate]
IC50 (JH2 domain of human Tyk2): 100 to 1000 nM | IC50 [1]: ≥ 1000 nM

CC(=O)Nc1cc2c(cn1)C1(CC1)CN2c1cc(C)cc(OC(C)C)n1 [Example 334, N-(1′-(6-isopropoxy-4-methylpyridin-2-yl)-1′,2′-dihydrospiro[cyclopropane-1,3′-pyrrolo[3,2-c]pyridin]-6′-yl)acetamide trifluoroacetate]
IC50 (JH2 domain of human Tyk2): 10 to 100 nM | IC50 [1]: ≥ 1000 nM

CCOc1cc(C)cc(N2CC3(CC3)c3cnc(NC(C)=O)cc32)n1 [Example 335, N-(1′-(6-ethoxy-4-methylpyridin-2-yl)-1′,2′-dihydrospiro[cyclopropane-1,3′-pyrrolo[3,2-c]pyridin]-6′-yl)acetamide trifluoroacetate]
IC50 (JH2 domain of human Tyk2): 10 to 100 nM | IC50 [1]: ≥ 1000 nM

COC(C)(C)COc1cc(C)cc(N2CC3(CC3)c3cnc(NC(C)=O)cc32)n1 [Example 336, N-(1′-(6-(2-methoxy-2-methylpropoxy)-4-methylpyridin-2-yl)-1′,2′-dihydrospiro[cyclopropane-1,3′-pyrrolo[3,2-c]pyridin]-6′-yl)acetamide trifluoroacetate]
IC50 (JH2 domain of human Tyk2): 100 to 1000 nM | IC50 [1]: ≥ 1000 nM

CC(=O)Nc1cc2c(cn1)C1(CC1)CN2c1cc(C)cc(OC2CCC(O)C2)n1 (stereo not shown) [Example 337, N-(1′-(6-((3-hydroxycyclopentyl)oxy)-4-methylpyridin-2-yl)-1′,2′-dihydrospiro[cyclopropane-1,3′-pyrrolo[3,2-c]pyridin]-6′-yl)acetamide trifluoroacetate]
IC50 (JH2 domain of human Tyk2): 10 to 100 nM | IC50 [1]: 100 to 1000 nM

COC1CCC(Oc2cc(C)cc(N3CC4(CC4)c4cnc(NC(C)=O)cc43)n2)C1 (stereo not shown) [Example 338, N-(1′-(6-((3-methoxycyclopentyl)oxy)-4-methylpyridin-2-yl)-1′,2′-dihydrospiro[cyclopropane-1,3′-pyrrolo[3,2-c]pyridin]-6′-yl)acetamide trifluoroacetate]
IC50 (JH2 domain of human Tyk2): 100 to 1000 nM | IC50 [1]: 100 to 1000 nM

CC(=O)Nc1cc2c(cn1)C1(CC1)CN2c1cc(C)cc(OC2CCOC2)n1 (stereo not shown) [Example 339, N-(1′-(4-methyl-6-((tetrahydrofuran-3-yl)oxy)pyridin-2-yl)-1′,2′-dihydrospiro[cyclopropane-1,3′-pyrrolo[3,2-c]pyridin]-6′-yl)acetamide trifluoroacetate]
IC50 (JH2 domain of human Tyk2): 10 to 100 nM | IC50 [1]: ≥ 1000 nM

CC(=O)Nc1cc2c(cn1)C1(CC1)CN2c1cc(C)cc(OC2CCC2)n1 [Example 340, N-(1′-(6-cyclobutoxy-4-methylpyridin-2-yl)-1′,2′-dihydrospiro[cyclopropane-1,3′-pyrrolo[3,2-c]pyridin]-6′-yl)acetamide trifluroacetate]
IC50 (JH2 domain of human Tyk2): 10 to 100 nM | IC50 [1]: ≥ 1000 nM

CC(=O)Nc1cc2c(cn1)C1(CC1)CN2c1cc(C)cc(OC2COC2)n1 [Example 341, N-(1′-(4-methyl-6-(oxetan-3-yloxy)pyridin-2-yl)-1′,2′-dihydrospiro[cyclopropane-1,3′-pyrrolo[3,2-c]pyridin]-6′-yl)acetamide trifluoroacetate]
IC50 (JH2 domain of human Tyk2): ≥ 1000 nM | IC50 [1]: ≥ 1000 nM

CC(=O)Nc1cc2c(cn1)C1(CC1)CN2c1cc(C)cc(OC2CC(O)C2)n1 (stereo not shown) [Example 342, N-(1′-(6-(3-hydroxycyclobutoxy)-4-methylpyridin-2-yl)-1′,2′-dihydrospiro[cyclopropane-1,3′-pyrrolo[3,2-c]pyridin]-6′-yl)acetamide]
IC50 (JH2 domain of human Tyk2): 100 to 1000 nM | IC50 [1]: ≥ 1000 nM

COC1CC(Oc2cc(C)cc(N3CC4(CC4)c4cnc(NC(C)=O)cc43)n2)C1 (stereo not shown) [Example 343, N-(1′-(6-(3-methoxycyclobutoxy)-4-methylpyridin-2-yl)-1′,2′-dihydrospiro[cyclopropane-1,3′-pyrrolo[3,2-c]pyridin]-6′-yl)acetamide trifluoroacetate]
IC50 (JH2 domain of human Tyk2): 100 to 1000 nM | IC50 [1]: ≥ 1000 nM

CC(=O)Nc1cc2c(cn1)C1(CC1)CN2c1cc(C)cc(OC2CC(C#N)C2)n1 (stereo not shown) [Example 344, N-(1′-(6-(3-cyanocyclobutoxy)-4-methylpyridin-2-yl)-1′,2′-dihydrospiro[cyclopropane-1,3′-pyrrolo[3,2-c]pyridin]-6′-yl)acetamide trifluoroacetate]
IC50 (JH2 domain of human Tyk2): 100 to 1000 nM | IC50 [1]: ≥ 1000 nM

COCC1CC(Oc2cc(C)cc(N3CC4(CC4)c4cnc(NC(C)=O)cc43)n2)C1 (stereo not shown) [Example 345, N-(1′-(6-(3-(methoxymethyl)cyclobutoxy)-4-methylpyridin-2-yl)-1′,2′-dihydrospiro[cyclopropane-1,3′-pyrrolo[3,2-c]pyridin]-6′-yl)acetamide trifluoroacetate]
IC50 (JH2 domain of human Tyk2): 100 to 1000 nM | IC50 [1]: ≥ 1000 nM
